Here are results for 8 compounds from article PMC4030617 (Biochemistry, 2009).

For series [1], the target named is T1, SHV Asn276Asp β-lactamase (Klebsiella pneumoniae, UniProt P0AD64, N270D). Description: Steady-state substrate hydrolysis kinetics, Asn276Asp. Type of series: biochemical. Conditions: for Km: PBS pH 7.4, room temperature.
Series [2] deals with E. coli DH10B expressing SHV Asn276Gln, -Glu, -Cys. Description: microbe, parasite or virus in culture. Type of series: cell-based. Conditions: Escherichia coli.
Series [3] has as its system E. coli DH10B expressing SHV-1. Description: MIC, agar dilution, strain expressing SHV-1. To be noted: Escherichia coli.
Series [4] concerns E. coli DH10B expressing SHV Asn276Asp. Description: microbe, parasite or virus in culture. The series is classed as cell-based. Conditions: Escherichia coli.
In series [5] the test system is E. coli DH10B expressing SHV Asn276Lys, -Arg, -Tyr, -Phe. Description: microbe, parasite or virus in culture. The series is classed as cell-based. To be noted: Escherichia coli.
The test system of series [6] is E. coli DH10B expressing SHV Asn276Thr. Description: microbe, parasite or virus in culture. The series is classed as cell-based. To be noted: Escherichia coli.
The next series relates to E. coli DH10B. Description: MIC, lysogeny broth agar dilution, host strain. To be noted: Escherichia coli.
Series [7] relates to E. coli DH10B expressing SHV Asn276Pro, -Trp. Description: microbe, parasite or virus in culture. The series is classed as cell-based. To be noted: Escherichia coli.
Series [8] deals with E. coli DH10B expressing SHV Asn276Met. Description: microbe, parasite or virus in culture. The series is classed as cell-based. To be noted: Escherichia coli.
Series [9] deals with E. coli DH10B expressing SHV Asn276Val. Description: microbe, parasite or virus in culture. Type of series: cell-based. To be noted: Escherichia coli.
The test system of series [10] is E. coli DH10B expressing SHV Asn276Ser. Description: microbe, parasite or virus in culture. Conditions: Escherichia coli. Type of series: cell-based.
For series [11], the system named is E. coli DH10B expressing SHV Asn276Ala, -Leu, -Ile. Description: microbe, parasite or virus in culture. Type of series: cell-based. To be noted: Escherichia coli.
The test system of series [12] is E. coli DH10B expressing SHV Asn276His. Description: microbe, parasite or virus in culture. Type of series: cell-based. To be noted: Escherichia coli.
In series [13] the test system is E. coli DH10B expressing SHV Asn276Gly. Description: microbe, parasite or virus in culture. Type of series: cell-based. To be noted: Escherichia coli.
The test system of series [14] is E. coli DH10B expressing SHV Asn276 variants. Description: MIC, agar dilution, all Asn276 variants taken together. Conditions: for MIC of Asn276 variants compared to SHV-1: all Asn276 variants vs SHV-1, in words.
Series [15] has as its target T2, SHV-1 β-lactamase (Klebsiella pneumoniae, UniProt P0AD64). The series is classed as biochemical.
The target of series [16] is T1, SHV Asn276Asp β-lactamase. Description: Inactivation kinetics. Type of series: biochemical. Conditions: Asn276Asp vs SHV-1.
Series [17] addresses T1, SHV Asn276Asp β-lactamase. Description: Direct competition assay against nitrocefin. Type of series: biochemical. Conditions: for increase in Ki for Asn276Asp as compared to SHV-1: Asn276Asp vs SHV-1.
Series [18] addresses T1, SHV Asn276Asp β-lactamase. Description: Partition ratio. The series is classed as biochemical. Conditions: rate of inhibitor hydrolysis, calculated.
The target in series [19] is T2, SHV-1 β-lactamase. Description: biochemical.
The test system of series [20] is CC(=O)OCC1=C(C(=O)O)N2C(=O)[C@@H](NC(=O)Cc3cccs3)[C@H]2SC1. Description: purified protein, by the assay type. Conditions: other: SHV-1, substrate hydrolysis, PBS pH 7.4, room temperature.
For series [21], the system named is CC1(C)S[C@@H]2[C@H](NC(=O)[C@H](N)c3ccccc3)C(=O)N2[C@H]1C(=O)O. Description: purified protein, by the assay type. To be noted: other: SHV-1, substrate hydrolysis, PBS pH 7.4, room temperature.
Series [22] deals with O=C(Cc1cccs1)N[C@@H]1C(=O)N2C(C(=O)O)=C(/C=C/c3ccc([N+](=O)[O-])cc3[N+](=O)[O-])CS[C@H]12. Description: purified protein, by the assay type. Conditions: other: SHV-1, substrate hydrolysis, PBS pH 7.4, room temperature.
For series [23], the system named is CCN1CCN(C(=O)N[C@@H](C(=O)N[C@@H]2C(=O)N3[C@@H]2SC(C)(C)[C@@H]3C(=O)O)c2ccccc2)C(=O)C1=O. Description: purified protein, by the assay type. Conditions: other: SHV-1, substrate hydrolysis, PBS pH 7.4, room temperature.

Values after ≈ are worked out from the molar mass of the structure shown. Values joined by “and” are separate entries in the source; they are usually repeats but may differ in a detail not shown here. Equal entries are not always repeated.

As for `O=C(Cc1cccs1)N[C@@H]1C(=O)N2C(C(=O)O)=C(/C=C/c3ccc([N+](=O)[O-])cc3[N+](=O)[O-])CS[C@H]12` [Nitrocefin, nitrocefin], in [1], the kcat stood at 137 ± 14 s⁻¹ and the Km came out at 28 ± 3 µM.

Consider `CC1(C)S[C@@H]2[C@H](NC(=O)[C@H](N)c3ccccc3)C(=O)N2[C@H]1C(=O)O` [ampicillin], for which the MIC in series [2] was 1020 to 2050 µg/mL (≈ 2930 to 5860 µM); in series [3], > 16400 µg/mL; in series [4] it was 8190 µg/mL (≈ 23400 µM); in series [5], 64 µg/mL (≈ 183 µM); in series [6], 1020 to 2050 µg/mL (≈ 2930 to 5860 µM); with E. coli DH10B, 1 µg/mL (≈ 2.86 µM). The MIC in series [7] was 8 to 16 µg/mL (≈ 22.9 to 45.8 µM); in series [8], 32 µg/mL (≈ 91.6 µM); in series [9], 2050 µg/mL (≈ 5860 µM); in series [10], 4100 µg/mL (≈ 11700 µM); in [11], 256 to 512 µg/mL (≈ 733 to 1470 µM); in [12], 1020 µg/mL (≈ 2930 µM). Also, the MIC in [13] was 4100 µg/mL (≈ 11700 µM). For the same compound, the kcat in series [1] came out at 989 ± 99 s⁻¹. Further, the Km in series [1] was found to be 134 ± 13 µM.

`CO/N=C(\C(=O)N[C@@H]1C(=O)N2C(C(=O)O)=C(COC(C)=O)CS[C@H]12)c1csc(N)n1` [cefotaxime]: the “MIC of Asn276 variants compared to SHV-1” value in series [14] was “comparable to SHV-1”.

In the case of `CC(=O)OCC1=C(C(=O)O)N2C(=O)[C@@H](NC(=O)Cc3cccs3)[C@H]2SC1` [cephalothin], the MIC in series [2] was 8 to 16 µg/mL (≈ 20.2 to 40.4 µM); in series [3], 64 to 128 µg/mL (≈ 161 to 323 µM); in series [4], 8 to 16 µg/mL (≈ 20.2 to 40.4 µM); in series [5] it was 4 to 8 µg/mL (≈ 10.1 to 20.2 µM); in series [6], 8 to 16 µg/mL (≈ 20.2 to 40.4 µM); in the series with E. coli DH10B, 4 µg/mL (≈ 10.1 µM). Further, the MIC in series [7] is 4 to 8 µg/mL (≈ 10.1 to 20.2 µM); in series [8], 4 µg/mL (≈ 10.1 µM); in [9], 16 µg/mL (≈ 40.4 µM); in [10] it was 16 µg/mL (≈ 40.4 µM); in series [11] it was 4 to 8 µg/mL (≈ 10.1 to 20.2 µM); in series [12], 16 µg/mL (≈ 40.4 µM). The same compound showed an MIC in series [13] of 16 µg/mL (≈ 40.4 µM). In addition, the “MIC, range over the variants at Asn276” value in series [14] (each of the variants at Asn276) lay within 4 to 16 µg/mL. In addition, the catalytic constant (kcat) in series [1] is 10 ± 1 s⁻¹. In addition, in [1], the Km amounted to 83 ± 11 µM.

On to `O=C(O)[C@H]1/C(=C/CO)O[C@@H]2CC(=O)N21` [clavulanate], for which the figures for the kcat (at SHV-1 β-lactamase [15]; in series [18]) were 0.60 ± 0.17 s⁻¹ and 0.75 ± 0.18 s⁻¹, respectively. Further, the “increase in KI for Asn276Asp as compared to SHV-1” value in series [16] amounted to 1.6 fold. Further, the “increase in Ki for Asn276Asp as compared to SHV-1” value in series [17] is 5 fold and 5.4 fold.

On to `C[C@@H](O)[C@H]1C(=O)N2C(C(=O)O)=C(S[C@@H]3CN[C@H](C(=O)N(C)C)C3)[C@H](C)[C@H]12` [meropenem], for which the Ki at SHV-1 β-lactamase [19] was determined as 31 ± 3 µM; in [17] (Ki, Asn276Asp, competition with NCF, corrected for NCF affinity), 1411 ± 14 µM. Moreover, the “MIC of Asn276 variants compared to SHV-1” value in series [14] is recorded as “comparable to SHV-1”. Further, in series [17], the “increase in Ki for Asn276Asp as compared to SHV-1” value is 46 fold.

As for `CCN1CCN(C(=O)N[C@@H](C(=O)N[C@@H]2C(=O)N3[C@@H]2SC(C)(C)[C@@H]3C(=O)O)c2ccccc2)C(=O)C1=O` [piperacillin], the MIC in series [2] was 64 to 128 µg/mL (≈ 124 to 247 µM); in series [3] it was 2050 µg/mL (≈ 3960 µM); in [4], 512 µg/mL (≈ 989 µM); in [5] it was 8 to 16 µg/mL (≈ 15.5 to 30.9 µM); in series [6], 128 to 256 µg/mL (≈ 247 to 495 µM); with E. coli DH10B it was 1 µg/mL (≈ 1.93 µM). For the same compound, the MIC is 2 to 4 µg/mL (≈ 3.86 to 7.73 µM) in series [7]; 4 µg/mL (≈ 7.73 µM) in series [8]; 512 µg/mL (≈ 989 µM) in series [9]; 512 µg/mL (≈ 989 µM) in series [10]; 16 to 32 µg/mL (≈ 30.9 to 61.8 µM) in series [11]; 256 µg/mL (≈ 495 µM) in series [12]. The compound also had an MIC in series [13] of 256 µg/mL (≈ 495 µM). The kcat in series [1] stood at 976 ± 98 s⁻¹. For the same compound, the Km in series [1] was 105 ± 18 µM.

Regarding “SHV-1 β-lactamase (Klebsiella pneumoniae)”, the Km came out at 29 ± 1 µM in [20], 183 ± 34 µM in series [21], 21 ± 3 µM in series [22] and 77 ± 7 µM in [23]. The kcat in [20] amounted to 14 ± 1 s⁻¹; in series [21] it was 3100 ± 300 s⁻¹; in series [22], 237 ± 24 s⁻¹; in [23] it was 898 ± 90 s⁻¹. Further, the kcat/Km amounted to 470000 ± 30000 M⁻¹ s⁻¹ in series [20], 1.7e+07 ± 4e+06 M⁻¹ s⁻¹ in series [21], 1.1e+07 ± 2e+06 M⁻¹ s⁻¹ in [22] and 1.2e+07 ± 1e+06 M⁻¹ s⁻¹ in series [23].
